In brackets after ≈: the same amount, converted by molar mass. Read-outs that look alike come from different tables or passages of the source.
How the values were obtained:
[1] = tested on: Clostridium difficile; experiment: C. difficile MIC assay (broth dilution); format: cell-based; conditions: Clostridioides difficile
Experimental: A minimum inhibitory concentration (MIC) assessment was performed using the anaerobic human gastrointestinal pathogen Clostridium difficile. A modification of the CLSI M11-A8 broth dilution method for Bacteroides fragilis susceptibility testing was used for C. difficile. (Methods for Dilution In Antimicrobial Susceptibility Tests for Bacteria That Grow Aerobically; Approved Standard-Eighth Edition. CLSI document M07-A8 (ISBN 1-56238-689-1). Vol. 29 No. 2. Clinical and Laboratory Standards Institute, USA, 2009). […] C. difficile was streaked and incubated on blood agar plates under anaerobic conditions. […] A 4 μL aliquot of each dilution was added to 196 μL of Reinforced Clostridial Medium (RCM), with test strains in wells of a 96 well plate. The final volume was 200 μL in each well.
Multisite variants were subsequently tested for specific antimicrobial activity in a C. difficile MIC assay (Table 10) (Methods for Antimicrobial Susceptibility Testing of Anaerobic Bacteria Approved Standard-Seventh Edition. CLSI document M11-A8 (ISBN 1-56238-790-1). Vol. 32 No. 5. Clinical and Laboratory Standards Institute, USA, 2012).

[2] = tested on: Staphylococcus aureus; experiment: MIC assay against Staphylococcus aureus; format: cell-based; conditions: Staphylococcus aureus, ATCC700699, read-out: MIC S. aureus ATCC 700699
[3] = tested on: Mycobacterium phlei (ATCC 11758); experiment: MIC assay against Mycobacterium phlei (acid-fast); format: cell-based; conditions: Mycolicibacterium phlei, ATCC11758; acid-fast microorganism; single site variants
[4] = tested on: Clostridium difficile UNT103-1; experiment: Ileal cannulated Syrian hamster C. difficile infection model; format: in vivo, Golden Syrian hamsters
Experimental: Following ileal cannulation surgery and recovery, male Golden Syrian hamsters were inoculated with Clostridium difficile UNT103-1 (VA11, non epidemic (cdtB-, REA group J) Curtis Donskey, Cleveland VA Hospital, Cleveland, Ohio). On Day 1, at 24 hrs after infection, all animals received a single subcutaneous injection of clindamycin (10 mg/kg). Test article formulations were administered three times per day (TID), starting on Day 2 at 18 hours after Clindamycin injection, for 5 consecutive days (Days 2 through 6). Vancomycin (positive control) was administered once a day at 20 mg/kg on Days 2 through 6, and followed until Day 22 to assess recurrence. The cecal contents from all hamsters that died on study or euthanized at the end ([…]) were tested for C. difficile Toxin A and Toxin B (tgc BIOMICS ELISA Kit, cat# TGC-E002-1) and for C. difficile Spore counts. Spore titer was determined by incubating the cecal contents in 50% final concentration of ethanol for 60 minutes at room temperature, centrifuging and resuspending the pellet in nano-pure water. The resuspension is incubated at 65° C. for 15 minutes, centrifuged again and the pellet resuspended again in nano-pure water. […] After 48 hours of anaerobic incubation, spore counts are determined as colony forming units (CFUs).

[5] = tested on: Clostridium difficile UNT103-1; experiment: Non-cannulated Syrian hamster C. difficile infection model, oral gavage; format: in vivo, Golden Syrian hamsters
Experimental: (§1) Following the recovery phase, male Golden Syrian hamsters were inoculated with Clostridium difficile UNT103-1 (VA11, non epidemic (cdtB-, REA group J) Curtis Donskey, Cleveland VA Hospital, Cleveland, Ohio). On Day 1, at 24 hrs after infection, all animals received a single subcutaneous injection of clindamycin (10 mg/kg). Test article formulations were administered three times per day (TID), starting on Day 2 at 18 hours after Clindamycin injection, for 5 consecutive days (Days 2 through 6), and followed until Day 22 to assess recurrence. Vancomycin (positive control) was administered once a day at 20 mg/kg on Days 2 through 6. Cecal spore counts and Toxins A and B were determined as described above

[6] = tested on: Clostridium difficile UNT103-1; experiment: Second non-cannulated Syrian hamster C. difficile infection model, oral gavage dose range-finding; format: in vivo, Golden Syrian hamsters
Experimental: as §1, with “formulated at 3 to 5 different doses” for “formulations”, “above.” for “above”

[7] = tested on: Clostridium scindens (ATCC 35704); experiment: microbe, parasite or virus in culture; conditions: ATCC35704, read-out: MIC C. scindens
[8] = tested on: Bifidobacterium breve (ATCC 15700); experiment: microbe, parasite or virus in culture; conditions: ATCC15700, read-out: MIC B. breve
[9] = tested on: Lactobacillus acidophilus (CCUG 4356); experiment: microbe, parasite or virus in culture; conditions: CCUG4356, read-out: MIC L. acidophilus
[10] = tested on: Peptostreptococcus anaerobius (ATCC 27337); experiment: microbe, parasite or virus in culture; conditions: ATCC27337, read-out: MIC P. anaerobius
[11] = vancomycin control, 20 mg/kg once a day

CN[C@H](CC(C)C)C(=O)N[C@H]1C(=O)N[C@@H](CC(N)=O)C(=O)N[C@H]2C(=O)N[C@H]3C(=O)N[C@H](C(=O)N[C@H](C(=O)O)c4cc(O)cc(O)c4-c4cc3ccc4O)[C@H](O)c3ccc(c(Cl)c3)Oc3cc2cc(c3O[C@@H]2O[C@H](CO)[C@@H](O)[C@H](O)[C@H]2O[C@H]2C[C@](C)(N)[C@H](O)[C@H](C)O2)Oc2ccc(cc2Cl)[C@H]1O [Vancomycin]
MIC ([1]; ATCC9689, strain ATCC 9689, first value of cell (first of two independent tests), read-out: C. difficile MIC ATCC 9689): 4 µg/mL (≈ 2.76 µM)
MIC ([1]; ATCC9689, strain ATCC 9689, multi-site variants, read-out: C. difficile MIC ATCC 9689): 0.5 µg/mL (≈ 0.345 µM)
MIC ([1]; ATCC9689, strain ATCC 9689, second value of cell (second independent test), read-out: C. difficile MIC ATCC 9689): 8 µg/mL (≈ 5.52 µM)
MIC ([1]; ATCC43255, strain ATCC 43255, read-out: C. difficile MIC ATCC 43255): 1 µg/mL (≈ 0.69 µM)
MIC ([1]; ATCC43596, strain ATCC 43596, read-out: C. difficile MIC ATCC 43596): 1 µg/mL (≈ 0.69 µM)
MIC ([1]; ATCC43597, strain ATCC 43597, read-out: C. difficile MIC ATCC 43597): 0.5 µg/mL (≈ 0.345 µM)
MIC ([1]; ATCC70057, read-out: C. difficile MIC ATCC 70057, strain ATCC 70057, first value of cell (first of two independent tests)): 0.5 µg/mL (≈ 0.345 µM)
MIC ([1]; ATCC70057, strain ATCC 70057, second value of cell (second independent test), read-out: C. difficile MIC ATCC 70057): 1 µg/mL (≈ 0.69 µM)
MIC ([1]; ATCCBAA1805, strain ATCC BAA-1805, multi-site variants, read-out: C. difficile MIC ATCC BAA-1805): 1 µg/mL (≈ 0.69 µM)
MIC ([1]; ATCCBAA1808, strain ATCC BAA-1808, read-out: C. difficile MIC ATCC BAA-1808): 0.5 µg/mL (≈ 0.345 µM)
MIC ([1]; ATCCBAA1874, strain ATCC BAA-1874, read-out: C. difficile MIC ATCC BAA-1874): 0.5 µg/mL (≈ 0.345 µM)
MIC ([1]; ATCCBAA1875, strain ATCC BAA-1875, multi-site variants, read-out: C. difficile MIC ATCC BAA-1875): 0.5 µg/mL (≈ 0.345 µM)
MIC ([1]; BAA1805, strain BAA-1805, single site variants, read-out: C. difficile MIC BAA-1805): 1 µg/mL (≈ 0.69 µM)
MIC ([1]; BAA1875, strain BAA-1875, single site variants, read-out: C. difficile MIC BAA-1875): 1 µg/mL (≈ 0.69 µM)
MIC ([1]; strain 103-1 (UNT103-1), read-out: C. difficile MIC 103-1): 1 µg/mL (≈ 0.69 µM)
MIC ([1]; strain 107-1 (UNT107-1), read-out: C. difficile MIC 107-1): 4 µg/mL (≈ 2.76 µM)
MIC ([1]; strain BI1, read-out: C. difficile MIC BI1): 8 µg/mL (≈ 5.52 µM)
MIC [2]: 2 µg/mL (≈ 1.38 µM)
MIC [3]: 0.25 µg/mL (≈ 0.173 µM)
Mean LOG10 CFU/mL of feces homogenates (cecal spore counts) at Day-22 ([4]; hamster, in vivo): 3.24 LOG10 CFU/mL
Percent Survival at Day-22 ([4]; ileal cannulated hamsters, test articles TID Days 2-6, vancomycin 20 mg/kg once a day): 33%
Mean LOG10 CFU/mL of feces homogenates (cecal spore counts) at Day-22 ([5]; hamster, in vivo, po): 2.96 LOG10 CFU/mL
Percent Survival at Day-22 ([5]; oral gavage TID Days 2-6, vancomycin 20 mg/kg once a day): 83%
Toxin A level at Day-22 ([5]; oral gavage, first value of A/B cell, limit of detection 0.8): 84.2 ng/mL
Toxin B level at Day-22 ([5]; oral gavage, second value of A/B cell, limit of detection 0.8): 8 ng/mL
Mean LOG10 CFU/mL of feces homogenates (cecal spore counts) at Day-22 ([6]; hamster, in vivo, 20 mg/kg): 6.66 LOG10 CFU/mL
Percent Survival at Day-22 ([6]; hamster, in vivo, 20 mg/kg): 50%
Toxin A level at Day-22 [6, 11]: 292.6 ng/mL
Toxin B level at Day-22 [6, 11]: 71.1 ng/mL
MIC [7]: 1 µg/mL (≈ 0.69 µM)
MIC [8]: 0.5 µg/mL (≈ 0.345 µM)
MIC [9]: 1 µg/mL (≈ 0.69 µM)
MIC [10]: 1 µg/mL (≈ 0.69 µM)
